Reference: ChEMBL document CHEMBL1201862, “PubChem BioAssay data set” (2004)
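Briefly, cells in 96-well plates were exposed to five compound concentrations for 48 h, and endpoints were estimated by linear interpolation. Here, GI50 denotes the concentration required for 50% inhibition of growth.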 Calls of active or inactive are those of the source. Rule as the data show it: active = GI50 up to about 1.1 µM and inactive = higher.

What was measured:
Experiment in all cases: DTP human tumour cell line panel, 48 h
786-0 = test system: 786-0
A549 = test system: A549
BT-549 = test system: BT-549
CAKI-1 = test system: CAKI-1
CCRF-CEM = test system: CCRF-CEM
COLO 205 = test system: COLO 205
DU-145 = test system: DU-145
EKVX = test system: EKVX
HCC 2998 = test system: HCC 2998
HCT-116 = test system: HCT-116
HCT-15 = test system: HCT-15
HL-60 = test system: HL-60
HOP-62 = test system: HOP-62
HT-29 = test system: HT-29
Hs-578T = test system: Hs-578T
IGROV-1 = test system: IGROV-1
K562 = test system: K562
KM12 = test system: KM12
LOX IMVI = test system: LOX IMVI
M14 = test system: M14
MCF7 = test system: MCF7
MDA-MB-231 = test system: MDA-MB-231
MDA-MB-435 = test system: MDA-MB-435
MDA-N = test system: MDA-N
MOLT-4 = test system: MOLT-4
Malme-3M = test system: Malme-3M
NCI-H226 = test system: NCI-H226
NCI-H23 = test system: NCI-H23
NCI-H460 = test system: NCI-H460
NCI-H522 = test system: NCI-H522
NCI/ADR-RES = test system: NCI/ADR-RES
OVCAR-3 = test system: OVCAR-3
OVCAR-4 = test system: OVCAR-4
OVCAR-8 = test system: OVCAR-8
PC-3 = test system: PC-3
RPMI-8226 = test system: RPMI-8226
RXF 393 = test system: RXF 393
SF-268 = test system: SF-268
SF-295 = test system: SF-295
SF-539 = test system: SF-539
SK-MEL-28 = test system: SK-MEL-28
SK-MEL-2 = test system: SK-MEL-2
SK-MEL-5 = test system: SK-MEL-5
SK-OV-3 = test system: SK-OV-3
SN12C = test system: SN12C
SNB-19 = test system: SNB-19
SNB-75 = test system: SNB-75
SR = test system: SR
SW-620 = test system: SW-620
T47D = test system: T47D
TK-10 = test system: TK-10
U-251 = test system: U-251
UACC-257 = test system: UACC-257
UACC-62 = test system: UACC-62
UO-31 = test system: UO-31
ACHN = test system: ACHN
HOP-92 = test system: HOP-92
OVCAR-5 = test system: OVCAR-5
A498 = test system: A498

N#Cc1sc2c(c1OC(=O)c1ccccc1)c(=O)n(-c1ccccc1)c(=S)n2-c1ccccc1
GI50 (786-0): 30.3 µM (inactive)
GI50 (A549): 29.3 µM (inactive)
GI50 (BT-549): 23.8 µM (inactive)
GI50 (CAKI-1): 35.9 µM (inactive)
GI50 (CCRF-CEM): 19.8 µM (inactive)
GI50 (COLO 205): 16.6 µM (inactive)
GI50 (DU-145): 31 µM (inactive)
GI50 (EKVX): 28.6 µM (inactive)
GI50 (HCC 2998): 25.2 µM (inactive)
GI50 (HCT-116): 19.9 µM (inactive)
GI50 (HCT-15): 18.2 µM
GI50 (HL-60): 24.4 µM (inactive)
GI50 (HOP-62): 18.2 µM (inactive)
GI50 (HT-29): 32.7 µM (inactive)
GI50 (Hs-578T): 14.8 µM (inactive)
GI50 (IGROV-1): 22 µM (inactive)
GI50 (K562): 27.6 µM (inactive)
GI50 (KM12): 19.5 µM (inactive)
GI50 (LOX IMVI): 19.8 µM (inactive)
GI50 (M14): 18.3 µM (inactive)
GI50 (MCF7): 19.2 µM (inactive)
GI50 (MDA-MB-231): 23.9 µM (inactive)
GI50 (MDA-MB-435): 24 µM (inactive)
GI50 (MDA-N): 26.3 µM (inactive)
GI50 (MOLT-4): 20.6 µM (inactive)
GI50 (Malme-3M): 20.5 µM (inactive)
GI50 (NCI-H226): 18.1 µM (inactive)
GI50 (NCI-H23): 21.2 µM (inactive)
GI50 (NCI-H460): 30.3 µM (inactive)
GI50 (NCI-H522): 13.8 µM (inactive)
GI50 (NCI/ADR-RES): 21 µM (inactive)
GI50 (OVCAR-3): 28.1 µM (inactive)
GI50 (OVCAR-4): 21.7 µM (inactive)
GI50 (OVCAR-8): 36.5 µM (inactive)
GI50 (PC-3): 19.5 µM (inactive)
GI50 (RPMI-8226): 23.6 µM (inactive)
GI50 (RXF 393): 14.3 µM (inactive)
GI50 (SF-268): 33.5 µM (inactive)
GI50 (SF-295): 28.2 µM (inactive)
GI50 (SF-539): 23.8 µM (inactive)
GI50 (SK-MEL-28): 25.7 µM (inactive)
GI50 (SK-MEL-2): 28.6 µM (inactive)
GI50 (SK-MEL-5): 15.2 µM (inactive)
GI50 (SK-OV-3): 35.6 µM (inactive)
GI50 (SN12C): 26.4 µM (inactive)
GI50 (SNB-19): 36.1 µM (inactive)
GI50 (SNB-75): > 10 µM (inactive)
GI50 (SR): 30.8 µM (inactive)
GI50 (SW-620): 28.8 µM (inactive)
GI50 (T47D): 16.2 µM (inactive)
GI50 (TK-10): 28.8 µM (inactive)
GI50 (U-251): 20.1 µM (inactive)
GI50 (UACC-257): 35.7 µM (inactive)
GI50 (UACC-62): 19.9 µM (inactive)
GI50 (UO-31): 18.3 µM (inactive)

CCCCc1ccc(-n2sc3ncc(C)cc3c2=O)cc1
GI50 (786-0): 34.9 µM (inactive)
GI50 (A549): 20.6 µM (inactive)
GI50 (ACHN): 30.9 µM (inactive)
GI50 (BT-549): 19.1 µM (inactive)
GI50 (CCRF-CEM): 8.18 µM (inactive)
GI50 (COLO 205): 20.5 µM (inactive)
GI50 (DU-145): 30.3 µM (inactive)
GI50 (EKVX): 19.5 µM (inactive)
GI50 (HCC 2998): 37.5 µM (inactive)
GI50 (HCT-116): 78 µM (inactive)
GI50 (HCT-15): 16.4 µM
GI50 (HL-60): 8.57 µM (inactive)
GI50 (HOP-62): 30.3 µM (inactive)
GI50 (HOP-92): 26.8 µM (inactive)
GI50 (Hs-578T): > 100 µM (inactive)
GI50 (IGROV-1): 21.7 µM (inactive)
GI50 (K562): 43.9 µM (inactive)
GI50 (KM12): 22.7 µM (inactive)
GI50 (LOX IMVI): 18.2 µM (inactive)
GI50 (M14): 13.4 µM (inactive)
GI50 (MCF7): 19.5 µM (inactive)
GI50 (MDA-MB-231): 25.6 µM (inactive)
GI50 (MDA-MB-435): 79.8 µM (inactive)
GI50 (MDA-N): 51.5 µM (inactive)
GI50 (MOLT-4): 25.2 µM (inactive)
GI50 (Malme-3M): 25.8 µM (inactive)
GI50 (NCI-H226): > 100 µM (inactive)
GI50 (NCI-H23): 30.1 µM (inactive)
GI50 (NCI-H460): 12.6 µM (inactive)
GI50 (NCI-H522): 16.3 µM (inactive)
GI50 (NCI/ADR-RES): 27.6 µM (inactive)
GI50 (OVCAR-3): 18.5 µM (inactive)
GI50 (OVCAR-4): 33.7 µM (inactive)
GI50 (OVCAR-5): 22.7 µM (inactive)
GI50 (OVCAR-8): 21 µM (inactive)
GI50 (PC-3): 15 µM (inactive)
GI50 (RPMI-8226): 22 µM (inactive)
GI50 (RXF 393): 27.2 µM (inactive)
GI50 (SF-295): 45.2 µM (inactive)
GI50 (SK-MEL-28): 96.2 µM (inactive)
GI50 (SK-MEL-2): 10.6 µM (inactive)
GI50 (SK-MEL-5): 21.5 µM (inactive)
GI50 (SK-OV-3): 28.6 µM (inactive)
GI50 (SN12C): 21.9 µM (inactive)
GI50 (SNB-19): > 100 µM (inactive)
GI50 (SNB-75): 42.9 µM (inactive)
GI50 (SR): 75.5 µM (inactive)
GI50 (SW-620): 27.4 µM (inactive)
GI50 (T47D): 22.6 µM (inactive)
GI50 (TK-10): 29.1 µM (inactive)
GI50 (U-251): 32.7 µM (inactive)
GI50 (UACC-62): 32.4 µM (inactive)
GI50 (UO-31): 6.1 µM (inactive)

O=C(/C=C1\N=C(c2ccccc2)N(c2nc3ccc(Sc4ccccc4)cc3[nH]2)C1=O)/C=C/c1ccccc1
GI50 (786-0): 33.3 µM (inactive)
GI50 (A498): 27.9 µM (inactive)
GI50 (A549): 41.1 µM (inactive)
GI50 (ACHN): 52.7 µM (inactive)
GI50 (BT-549): 31.1 µM (inactive)
GI50 (CAKI-1): 31.3 µM (inactive)
GI50 (CCRF-CEM): 31.6 µM (inactive)
GI50 (COLO 205): 16.5 µM (inactive)
GI50 (DU-145): 28.1 µM (inactive)
GI50 (EKVX): 43.4 µM (inactive)
GI50 (HCC 2998): 17.4 µM (inactive)
GI50 (HCT-116): 32.8 µM (inactive)
GI50 (HCT-15): 33.1 µM
GI50 (HL-60): 20.8 µM (inactive)
GI50 (HOP-62): 39.7 µM (inactive)
GI50 (HOP-92): 37.8 µM (inactive)
GI50 (HT-29): 30.3 µM (inactive)
GI50 (Hs-578T): 26.4 µM (inactive)
GI50 (IGROV-1): 45.4 µM (inactive)
GI50 (K562): 26.2 µM (inactive)
GI50 (KM12): 26.7 µM (inactive)
GI50 (LOX IMVI): 17.4 µM (inactive)
GI50 (M14): 33.3 µM (inactive)
GI50 (MCF7): 30.1 µM (inactive)
GI50 (MDA-MB-231): 22.4 µM (inactive)
GI50 (MDA-MB-435): 15.7 µM (inactive)
GI50 (MDA-N): 14.9 µM (inactive)
GI50 (MOLT-4): 33.3 µM (inactive)
GI50 (Malme-3M): 34.7 µM (inactive)
GI50 (NCI-H23): 31.6 µM (inactive)
GI50 (NCI-H460): 30.2 µM (inactive)
GI50 (NCI-H522): 20.3 µM (inactive)
GI50 (NCI/ADR-RES): 24.4 µM (inactive)
GI50 (OVCAR-3): 29.6 µM (inactive)
GI50 (OVCAR-4): 39.8 µM (inactive)
GI50 (OVCAR-5): 44 µM (inactive)
GI50 (OVCAR-8): 24.5 µM (inactive)
GI50 (PC-3): 30.5 µM (inactive)
GI50 (RPMI-8226): 22.6 µM (inactive)
GI50 (RXF 393): 22.8 µM (inactive)
GI50 (SF-268): 31.4 µM (inactive)
GI50 (SF-295): 28.2 µM (inactive)
GI50 (SK-MEL-28): 46.5 µM (inactive)
GI50 (SK-MEL-2): 18.7 µM (inactive)
GI50 (SK-MEL-5): 21.5 µM (inactive)
GI50 (SK-OV-3): 40.9 µM (inactive)
GI50 (SN12C): 40 µM (inactive)
GI50 (SNB-19): 49 µM (inactive)
GI50 (SNB-75): 16.7 µM (inactive)
GI50 (SW-620): 33.9 µM (inactive)
GI50 (T47D): 22.6 µM (inactive)
GI50 (TK-10): 29.2 µM (inactive)
GI50 (U-251): 27.7 µM (inactive)
GI50 (UACC-257): 30.8 µM (inactive)
GI50 (UACC-62): 22.9 µM (inactive)
GI50 (UO-31): 53.3 µM (inactive)
